Source: PMC6681697, “One-Step ^18F-Labeling and Preclinical Evaluation of Prostate-Specific Membrane Antigen Trifluoroborate Probes for Cancer Imaging” (Journal of Nuclear Medicine, 2019)

Experiments:
[1] = Distribution coefficient (LogD7.4), shake flask method; type: physicochemical; details: n-octanol / phosphate buffer 0.1 M pH 7.4; n = 3
Protocol: LogD7.4 values were measured using the shake flask method. Briefly, an aliquot of ^18F-labeled tracer was added to a vial containing 2.5 mL of n-octanol and 2.5 mL of phosphate buffer (0.1 M, pH 7.4). The mixture was vortexed for 2 min and then centrifuged at 3,000g for 10 min. A sample of the n-octanol (0.1 mL) and buffer (0.1 mL) layers was counted using a γ-counter. Values of LogD7.4 were calculated using the following equation: LogD7.4 = log10 [(counts in n-octanol phase)/(counts in buffer phase)].

[2] = molecular target: T1, PSMA (Homo sapiens, UniProt Q04609); test: In vitro competition binding assay on LNCaP cells with ^18F-DCFPyL as radioligand
T1 construct: because it expresses PSMA endogenously and is commonly used to evaluate PSMA-targeting radiotracers; endogenous in cells; host or cells: LNCaP cells
T1 sequence (Q04609 whole entry): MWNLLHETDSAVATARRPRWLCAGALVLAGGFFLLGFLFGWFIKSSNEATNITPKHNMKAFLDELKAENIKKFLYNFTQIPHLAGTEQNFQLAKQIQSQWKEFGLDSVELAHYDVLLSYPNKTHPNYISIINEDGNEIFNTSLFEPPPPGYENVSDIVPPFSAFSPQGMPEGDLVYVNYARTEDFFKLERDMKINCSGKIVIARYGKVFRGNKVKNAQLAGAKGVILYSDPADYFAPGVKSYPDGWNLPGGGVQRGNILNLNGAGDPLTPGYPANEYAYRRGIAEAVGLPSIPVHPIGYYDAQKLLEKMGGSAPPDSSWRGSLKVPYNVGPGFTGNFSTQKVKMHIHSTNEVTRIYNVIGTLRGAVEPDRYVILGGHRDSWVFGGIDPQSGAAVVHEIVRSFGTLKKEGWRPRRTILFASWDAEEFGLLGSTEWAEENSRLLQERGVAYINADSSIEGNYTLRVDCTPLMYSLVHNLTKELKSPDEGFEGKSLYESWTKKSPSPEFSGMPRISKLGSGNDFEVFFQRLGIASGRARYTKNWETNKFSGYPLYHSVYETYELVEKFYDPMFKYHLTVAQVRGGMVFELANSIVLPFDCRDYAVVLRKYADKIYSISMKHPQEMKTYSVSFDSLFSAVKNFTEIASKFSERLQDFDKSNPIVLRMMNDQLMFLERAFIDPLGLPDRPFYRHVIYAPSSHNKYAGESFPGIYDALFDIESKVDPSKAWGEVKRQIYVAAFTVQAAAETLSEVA
Protocol: LNCaP cells were plated onto a 24-well poly-D-lysine coated plate for 48 h (400,000/well). […] Nonspecific binding was determined in the presence of 10 μM unlabeled DCFPyL. The assay mixtures were incubated for 1 h at 37°C with gentle agitation followed by 2 washes with cold HEPES buffered saline. A trypsin solution (0.25%, 400 μL) was then added to each well to harvest the cells. Radioactivity was measured by γ-counting, and Ki values were calculated using the “1 site—fit Ki” built-in model in Prism 7 (GraphPad).

[3] = test system: LNCaP xenografts; test: Ex vivo biodistribution and blocking studies in mice bearing LNCaP xenografts; details: for tumor uptake: LNCaP tumor
Protocol: Imaging and biodistribution experiments were performed using NODSCID IL2RγKO male mice. All experiments were conducted according to the guidelines established by the Canadian Council on Animal Care and approved by the Animal Ethics Committee of the University of British Columbia. Mice were anesthetized by inhalation with 2% isoflurane in oxygen and implanted subcutaneously with 1 × 10^7 LNCaP cells behind the left shoulder. The mice were imaged or used in biodistribution studies once the tumor reached 5–8 mm in diameter (5–6 wk).
For biodistribution and blocking studies, the mice were injected with 1–3 MBq of radiotracer. At 60 min, the mice were anesthetized with 2% isoflurane inhalation and euthanized by CO2 inhalation. Blood was withdrawn by cardiac puncture, and the organs and tissues of interest were collected, weighed, and counted using an automatic γ-counter (PerkinElmer). Uptake values were expressed as the percentage of the injected dose per gram of tissue (%ID/g).
A standard 1-way ANOVA was performed to determine whether statistically significant differences in tumor uptake occurred between radiotracers. Each radiotracer was compared with ^18F-DCFPyL using the Dunnett test (a many-to-one t test comparison). This analysis was also performed for kidney and blood activity and for tumor-to-blood and tumor-to-muscle ratios. Reported P values were adjusted for multiple comparisons. The analysis was performed using Prism 8 (GraphPad). […]
Statistical analyses were performed using GradPad prism 7. Multiple t tests were performed to compare biodistribution in unblocked and blocked mice, multiple comparisons were corrected using the Holm-Sidak method. The difference was considered statistically significant when p value was < 0.05.
Supplemental Table 1 – Complete biodistribution study for compounds [18F]1–3 […]
Tissue 1h 1h blocked 1h 1h blocked 1h 1h blocked
(%ID/g) n = 8 n = 4 n = 6 n = 4 n = 8 n = 5 […]
(1 picture or pasted object on this page, not shown here)

[4] = 1 h after injection, 1-way ANOVA, Dunnett test
[5] = 1 h blocked (coinjection of DCFPyL 0.5 mg)

SMILES: C[N+](C)(Cc1cn(CC(=O)NCCOCCOCCC(=O)N[C@@H](Cc2ccc3ccccc3c2)C(=O)NCCCC[C@H](NC(=O)N[C@@H](CCC(=O)O)C(=O)O)C(=O)O)nn1)C[B-](F)(F)F [^18F-7]
- logD at 2 min [1]: -3.24 ± 0.03
- Ki [2]: 0.0165 ± 0.0055 µM
- T/B (tumor-to-blood ratio) ([3]; 1 h after injection, unblocked): 54.57 ± 38.49
- T/K (tumor-to-kidney ratio) ([3]; 1 h after injection, unblocked): 0.28 ± 0.22
- T/M (tumor-to-muscle ratio) ([3]; 1 h after injection, unblocked): 117.13 ± 52.06
- adrenal uptake ([3]; 1 h after injection, unblocked): 0.81 ± 0.25 %ID/g
- blood uptake ([3]; 1 h after injection, unblocked): 0.13 ± 0.08 %ID/g
- bone uptake ([3]; 1 h after injection, unblocked): 0.10 ± 0.07 %ID/g
- brain uptake ([3]; 1 h after injection, unblocked): 0.01 ± 0.01 %ID/g
- fat uptake ([3]; 1 h after injection, unblocked): 0.27 ± 0.14 %ID/g
- heart uptake ([3]; 1 h after injection, unblocked): 0.07 ± 0.02 %ID/g
- intestine uptake ([3]; 1 h after injection, unblocked): 22.24 ± 2.79 %ID/g
- kidney uptake ([3]; 1 h after injection, unblocked): 20.35 ± 9.85 %ID/g
- liver uptake ([3]; 1 h after injection, unblocked): 0.83 ± 0.34 %ID/g
- lung uptake ([3]; 1 h after injection, unblocked): 0.40 ± 0.13 %ID/g
- muscle uptake ([3]; 1 h after injection, unblocked): 0.05 ± 0.01 %ID/g
- pancreas uptake ([3]; 1 h after injection, unblocked): 0.13 ± 0.11 %ID/g
- spleen uptake ([3]; 1 h after injection, unblocked): 0.75 ± 0.36 %ID/g
- stomach uptake ([3]; 1 h after injection, unblocked): 0.21 ± 0.12 %ID/g
- testes uptake ([3]; 1 h after injection, unblocked): 0.18 ± 0.05 %ID/g
- kidney accumulation compared with ^18F-DCFPyL [3, 4]: lower kidney accumulation
- tumor uptake compared with ^18F-DCFPyL [3, 4]: lower tumor uptake than ^18F-DCFPyL
- tumor-to-blood and tumor-to-muscle ratios compared with ^18F-DCFPyL [3, 4]: higher ratios
- T/B (tumor-to-blood ratio) [3, 5]: 1.56 ± 0.87
- T/K (tumor-to-kidney ratio) [3, 5]: 0.28 ± 0.12
- T/M (tumor-to-muscle ratio) [3, 5]: 3.62 ± 3.62
- adrenal uptake [3, 5]: 0.06 ± 0.09 %ID/g
- blood uptake [3, 5]: 0.85 ± 1.37 %ID/g
- bone uptake [3, 5]: 0.16 ± 0.25 %ID/g
- brain uptake [3, 5]: 0.01 ± 0.01 %ID/g
- fat uptake [3, 5]: 0.02 ± 0.02 %ID/g
- heart uptake [3, 5]: 0.04 ± 0.01 %ID/g
- intestine uptake [3, 5]: 26.68 ± 9.98 %ID/g
- kidney uptake [3, 5]: 0.56 ± 0.18 %ID/g
- liver uptake [3, 5]: 0.73 ± 0.21 %ID/g
- lung uptake [3, 5]: 0.12 ± 0.04 %ID/g
- muscle uptake [3, 5]: 0.24 ± 0.37 %ID/g
- pancreas uptake [3, 5]: 0.06 ± 0.06 %ID/g
- spleen uptake [3, 5]: 0.15 ± 0.16 %ID/g
- stomach uptake [3, 5]: 1.55 ± 2.10 %ID/g
- testes uptake [3, 5]: 0.04 ± 0.01 %ID/g
- tumor uptake ([3]; 1 h after injection, unblocked, listed as 7): 5.1 ± 1.1 %ID/g
- tumor uptake ([3]; 1 h after injection, unblocked, listed as [18F]7): 5.09 ± 1.10 %ID/g
- tumor uptake [3, 5]: 0.15 ± 0.06 %ID/g

SMILES: C[N+](C)(Cc1cn(Cc2ccc(C(=O)NCCCC[C@H](NC(=O)N[C@@H](CCC(=O)O)C(=O)O)C(=O)O)cc2)nn1)C[B-](F)(F)F [^18F-2]
- logD at 2 min [1]: -4.26 ± 0.04
- Ki [2]: 0.0118 ± 0.0009 µM
- T/B (tumor-to-blood ratio) ([3]; 1 h after injection, unblocked): 15.95 ± 1.37
- T/K (tumor-to-kidney ratio) ([3]; 1 h after injection, unblocked): 0.12 ± 0.04
- T/M (tumor-to-muscle ratio) ([3]; 1 h after injection, unblocked): 37.30 ± 9.53
- adrenal uptake ([3]; 1 h after injection, unblocked): 4.65 ± 1.75 %ID/g
- blood uptake ([3]; 1 h after injection, unblocked): 0.52 ± 0.06 %ID/g
- bone uptake ([3]; 1 h after injection, unblocked): 0.44 ± 0.09 %ID/g
- brain uptake ([3]; 1 h after injection, unblocked): 0.04 ± 0.01 %ID/g
- fat uptake ([3]; 1 h after injection, unblocked): 0.73 ± 0.26 %ID/g
- heart uptake ([3]; 1 h after injection, unblocked): 0.33 ± 0.08 %ID/g
- intestine uptake ([3]; 1 h after injection, unblocked): 0.33 ± 0.05 %ID/g
- kidney uptake ([3]; 1 h after injection, unblocked): 71.70 ± 18.0 %ID/g
- liver uptake ([3]; 1 h after injection, unblocked): 1.69 ± 0.19 %ID/g
- lung uptake ([3]; 1 h after injection, unblocked): 1.39 ± 0.17 %ID/g
- muscle uptake ([3]; 1 h after injection, unblocked): 0.23 ± 0.04 %ID/g
- pancreas uptake ([3]; 1 h after injection, unblocked): 0.33 ± 0.05 %ID/g
- spleen uptake ([3]; 1 h after injection, unblocked): 5.01 ± 0.64 %ID/g
- stomach uptake ([3]; 1 h after injection, unblocked): 0.10 ± 0.03 %ID/g
- testes uptake ([3]; 1 h after injection, unblocked): 0.67 ± 0.17 %ID/g
- tumor uptake compared with ^18F-DCFPyL [3, 4]: No statistically significant differences
- T/B (tumor-to-blood ratio) [3, 5]: 0.77 ± 0.48
- T/K (tumor-to-kidney ratio) [3, 5]: 0.13 ± 0.02
- T/M (tumor-to-muscle ratio) [3, 5]: 2.66 ± 1.60
- adrenal uptake [3, 5]: 0.20 ± 0.05 %ID/g
- blood uptake [3, 5]: 0.46 ± 0.24 %ID/g
- bone uptake [3, 5]: 0.30 ± 0.06 %ID/g
- brain uptake [3, 5]: 0.02 ± 0.00 %ID/g
- fat uptake [3, 5]: 0.06 ± 0.01 %ID/g
- heart uptake [3, 5]: 0.09 ± 0.02 %ID/g
- intestine uptake [3, 5]: 0.31 ± 0.02 %ID/g
- kidney uptake [3, 5]: 2.11 ± 0.19 %ID/g
- liver uptake [3, 5]: 1.76 ± 0.17 %ID/g
- lung uptake [3, 5]: 0.22 ± 0.03 %ID/g
- muscle uptake [3, 5]: 0.12 ± 0.05 %ID/g
- pancreas uptake [3, 5]: 0.06 ± 0.01 %ID/g
- spleen uptake [3, 5]: 0.09 ± 0.03 %ID/g
- stomach uptake [3, 5]: 0.06 ± 0.02 %ID/g
- testes uptake [3, 5]: 0.08 ± 0.02 %ID/g
- tumor uptake ([3]; 1 h after injection, unblocked, listed as 2): 8.3 ± 1.3 %ID/g
- tumor uptake ([3]; 1 h after injection, unblocked, listed as [18F]2): 8.28 ± 1.25 %ID/g
- tumor uptake [3, 5]: 0.27 ± 0.06 %ID/g

SMILES: C[N+](C)(Cc1cn(CC(=O)NC[C@H]2CC[C@H](C(=O)N[C@@H](Cc3ccc4ccccc4c3)C(=O)NCCCC[C@H](NC(=O)N[C@@H](CCC(=O)O)C(=O)O)C(=O)O)CC2)nn1)C[B-](F)(F)F [^18F-5]
- logD at 2 min [1]: -3.52 ± 0.21
- Ki [2]: 0.00114 ± 0.00026 µM
- intestinal activity compared with ^18F-DCFPyL ([3]; 1 h after injection): significantly higher intestinal activity than ^18F-DCFPyL
- T/B (tumor-to-blood ratio) ([3]; 1 h after injection, unblocked): 17.12 ± 5.40
- T/K (tumor-to-kidney ratio) ([3]; 1 h after injection, unblocked): 0.21 ± 0.08
- T/M (tumor-to-muscle ratio) ([3]; 1 h after injection, unblocked): 49.67 ± 28.45
- adrenal uptake ([3]; 1 h after injection, unblocked): 2.89 ± 1.94 %ID/g
- blood uptake ([3]; 1 h after injection, unblocked): 0.89 ± 0.42 %ID/g
- bone uptake ([3]; 1 h after injection, unblocked): 0.34 ± 0.14 %ID/g
- brain uptake ([3]; 1 h after injection, unblocked): 0.04 ± 0.01 %ID/g
- fat uptake ([3]; 1 h after injection, unblocked): 0.83 ± 0.33 %ID/g
- heart uptake ([3]; 1 h after injection, unblocked): 0.31 ± 0.11 %ID/g
- intestine uptake ([3]; 1 h after injection, unblocked): 12.96 ± 4.61 %ID/g
- kidney uptake ([3]; 1 h after injection, unblocked): 73.86 ± 35.21 %ID/g
- liver uptake ([3]; 1 h after injection, unblocked): 1.14 ± 0.48 %ID/g
- lung uptake ([3]; 1 h after injection, unblocked): 1.21 ± 0.48 %ID/g
- muscle uptake ([3]; 1 h after injection, unblocked): 0.36 ± 0.18 %ID/g
- pancreas uptake ([3]; 1 h after injection, unblocked): 0.30 ± 0.17 %ID/g
- spleen uptake ([3]; 1 h after injection, unblocked): 3.21 ± 1.73 %ID/g
- stomach uptake ([3]; 1 h after injection, unblocked): 0.37 ± 0.45 %ID/g
- testes uptake ([3]; 1 h after injection, unblocked): 0.74 ± 0.55 %ID/g
- tumor uptake compared with ^18F-DCFPyL [3, 4]: No statistically significant differences
- T/B (tumor-to-blood ratio) [3, 5]: 0.95 ± 0.10
- T/K (tumor-to-kidney ratio) [3, 5]: 0.41 ± 0.09
- T/M (tumor-to-muscle ratio) [3, 5]: 2.85 ± 0.70
- adrenal uptake [3, 5]: 0.34 ± 0.09 %ID/g
- blood uptake [3, 5]: 0.44 ± 0.02 %ID/g
- bone uptake [3, 5]: 0.17 ± 0.03 %ID/g
- brain uptake [3, 5]: 0.02 ± 0.00 %ID/g
- fat uptake [3, 5]: 0.16 ± 0.06 %ID/g
- heart uptake [3, 5]: 0.15 ± 0.00 %ID/g
- intestine uptake [3, 5]: 12.36 ± 0.55 %ID/g
- kidney uptake [3, 5]: 1.04 ± 0.14 %ID/g
- liver uptake [3, 5]: 0.67 ± 0.13 %ID/g
- lung uptake [3, 5]: 0.39 ± 0.01 %ID/g
- muscle uptake [3, 5]: 0.15 ± 0.02 %ID/g
- pancreas uptake [3, 5]: 0.13 ± 0.06 %ID/g
- spleen uptake [3, 5]: 0.21 ± 0.02 %ID/g
- stomach uptake [3, 5]: 0.12 ± 0.10 %ID/g
- testes uptake [3, 5]: 0.24 ± 0.05 %ID/g
- tumor uptake ([3]; 1 h after injection, unblocked): 13.96 ± 5.20 %ID/g
- tumor uptake [3, 5]: 0.41 ± 0.04 %ID/g
